From patent publication EP4729529A1, “PREPARATION OF PEPTIDE INHIBITOR OF INTERLEUKIN-23 RECEPTOR AND USE THEREOF” (Xizang Haisco Pharmaceutical Co., Ltd., priority 2023, dated 2024)
Positions of bridges follow the written chain, without caps; N, C: chain ends. Non-standard residues stand in square brackets, D forms with d. Residues, ends and D or L forms follow the SMILES beside them. Phe(4-OC2H4NH2,2,3-(CH2)3) = NCCOc1ccc(C[C@H](N)C(=O)O)c2c1CCC2; Trp(7-Me) = Cc1cccc2c(C[C@H](N)C(=O)O)c[nH]c12; 2Nal = N[C@@H](Cc1ccc2ccccc2c1)C(=O)O; 3Pal = N[C@@H](Cc1cccnc1)C(=O)O; Pen = CC(C)(S)[C@H](N)C(=O)O; Thp = NC1(C(=O)O)CCOCC1; Sar = CNCC(=O)O

Legend:
[1] = Test of stability in plasma, rat; type: in vitro ADME; conditions: read-out: Residual rate% at 37°C for 6 h
Method: 5. Test of stability in plasma
In this experiment, plasmas of five species, including human, monkey, dog, rat, and mouse, were used to evaluate the stability in plasma of Compound 7.
A plasma sample was prepared at a concentration level of 1000 ng/mL, and dispensed into EP tubes at time points 0 h and 6 h. Acetonitrile solution containing an internal standard was added directly to the 0 h sample; and the 6 h sample was placed at 37°C for the corresponding time, and then added with an acetonitrile solution containing internal standard. The concentration of the test compound in the sample was measured by the LC-MS/MS method, and the residual rate was calculated from the ratio of the peak areas of the test compound to the internal standard in the time point sample and the 0 h sample.
Experimental results: At the concentration level of 1000 ng/mL under the test conditions, the residual rates of the test Compounds were shown in Table 6 below. Table 6. Residual rate% at 37°C for 6 h

[2] = biological target: (Homo sapiens, UniProt Q5VWK5); experiment: IL-23-stimulated pSTAT3 detection assay in PBMCs (ELISA); type: cell-based; conditions: rhIL23 stimulation 30 minutes, read-out: pSTAT3 inhibition/IC50
(Homo sapiens, UniProt Q5VWK5), sequence (Q5VWK5 24-629, other chains not shown): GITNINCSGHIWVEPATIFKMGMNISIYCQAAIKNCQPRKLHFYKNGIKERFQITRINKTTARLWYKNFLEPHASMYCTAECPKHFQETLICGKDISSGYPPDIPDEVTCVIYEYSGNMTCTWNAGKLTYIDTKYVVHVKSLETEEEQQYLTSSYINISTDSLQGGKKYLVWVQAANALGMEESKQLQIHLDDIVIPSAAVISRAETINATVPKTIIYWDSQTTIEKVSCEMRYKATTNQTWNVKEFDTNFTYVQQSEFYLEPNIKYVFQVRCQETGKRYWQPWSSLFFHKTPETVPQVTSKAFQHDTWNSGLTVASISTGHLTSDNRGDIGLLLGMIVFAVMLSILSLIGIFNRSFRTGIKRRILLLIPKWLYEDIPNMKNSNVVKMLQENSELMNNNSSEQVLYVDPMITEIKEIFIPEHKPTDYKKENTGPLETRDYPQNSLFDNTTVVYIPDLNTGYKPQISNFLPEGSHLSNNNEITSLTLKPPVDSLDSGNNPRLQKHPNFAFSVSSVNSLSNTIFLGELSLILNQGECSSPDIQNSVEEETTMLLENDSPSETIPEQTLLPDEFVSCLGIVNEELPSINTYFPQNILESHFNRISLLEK
(Homo sapiens, UniProt Q5VWK5), sequence (Q9NPF7 20-189 partner, other chains not shown): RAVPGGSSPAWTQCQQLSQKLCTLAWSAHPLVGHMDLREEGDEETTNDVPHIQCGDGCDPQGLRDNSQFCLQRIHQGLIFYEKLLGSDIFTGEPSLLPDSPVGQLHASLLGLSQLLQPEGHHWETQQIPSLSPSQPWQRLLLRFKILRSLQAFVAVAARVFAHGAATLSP
(Homo sapiens, UniProt Q5VWK5), sequence (P29460 23-328 partner, other chains not shown): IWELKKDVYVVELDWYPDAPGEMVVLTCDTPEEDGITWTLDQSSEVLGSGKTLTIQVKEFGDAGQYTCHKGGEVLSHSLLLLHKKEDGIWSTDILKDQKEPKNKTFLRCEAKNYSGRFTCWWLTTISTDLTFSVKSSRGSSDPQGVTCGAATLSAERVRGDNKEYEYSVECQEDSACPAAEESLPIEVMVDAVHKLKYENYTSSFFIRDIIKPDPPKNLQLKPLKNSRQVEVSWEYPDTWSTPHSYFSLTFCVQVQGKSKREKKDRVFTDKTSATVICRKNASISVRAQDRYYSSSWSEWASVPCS
Method: 3. IL-23-stimulated pSTAT3 detection assay in PBMCs
Cryopreserved human PBMCs were thawed, and seeded onto a plate previously covered with an anti-CD3 antibody at 1 × 10^6 cells/well. Then, an anti-CD28 antibody was added to the plate, and the cells were incubated at 37°C with 5% CO2 for 5 days. On Day 5, the cells were seeded onto a 96-well plate at a density of 100K cells/well after 4 hours of stimulation by FBS starvation. The diluted Compound was transferred into the 96-well cell culture plate, and the plate was incubated at 37°C with 5% CO2 for 1 hour. rhIL23 (R&D, 1290-IL) was added to the cell culture plate, and the plate was incubated at 37°C with 5% CO2 for 30 minutes. The cells in the wells were lysed on ice with a lysis buffer containing 1× PHOSstop solution for 30 minutes, and the plate was centrifuged at 1000 rpm for 1 minute. Then, the supernatant was transferred into a 96-well ELISA plate, and pSTAT3 ELISA assay was performed according to the instructions of the kit (CST, 7300CA). Absorbance values at […] were read on PHERAstar FSX (BMG LRBTECH). The inhibition rate of the compounds was assessed using the following formula, and IC50 values were obtained by fitting with Graphpad.
Calculation formula of inhibition rate: [formula] • where Data negative: mean of DMSO control group; and • Data positive: mean of non-IL23-stimulated group
The calculation formula of IC50 was as follows: Y = Bottom + (Top−Bottom)/(1+10^(∧)((LogIC50−X)*HillSlope)) [formula] • where X: concentration of compound; and • Y: inhibition rate of compound. Table 3. pSTAT3 inhibition

[3] = biological target: T1, IL-23α/IL-12β and IL-23R (Homo sapiens, UniProt Q5VWK5); experiment: IL-23α/IL-12β and IL-23R binding assay (TR-FRET/HTRF); conditions: inhibition of the binding of IL-23α/IL-12β to IL-23R, TR-FRET; both proteins 0.3 nM
T1 construct: purchased ACRO ILR-H82F3 (IL-23R); ILB-H52W5 (IL-23α/IL-12β)
T1 sequence (Q5VWK5 24-353 limits assumed): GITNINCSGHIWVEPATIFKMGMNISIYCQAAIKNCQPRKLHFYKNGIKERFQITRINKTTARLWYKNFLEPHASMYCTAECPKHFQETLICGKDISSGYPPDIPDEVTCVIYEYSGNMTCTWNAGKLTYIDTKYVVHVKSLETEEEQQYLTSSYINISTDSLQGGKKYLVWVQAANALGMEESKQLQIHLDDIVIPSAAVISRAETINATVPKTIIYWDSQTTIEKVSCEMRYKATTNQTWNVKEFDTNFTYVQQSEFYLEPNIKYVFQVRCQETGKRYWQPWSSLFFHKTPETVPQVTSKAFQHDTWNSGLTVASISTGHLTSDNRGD
Procedure, shortened: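 TR-FRET with IL-23α/IL-12β and IL-23R each at 0.3 nM in PPI buffer; compound preincubated with IL-23α/IL-12β 60 min at 25°C, then IL-23R and Tb/d2 detection reagents added for 60 min. HTRF 665/620 ratio; IC50 by nonlinear regression.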

[4] = Test of stability in gastrointestinal fluid: simulated intestinal fluid (trypsin, pH 6.8); type: in vitro ADME; conditions: 0.5 mg/ml, 37°C
Method: 6. Test of stability in gastrointestinal fluid
1.3. Preparation of 0.1 mol/L NaOH: 0.4 g of NaOH was dissolved in 100 ml of water.
1.4. Preparation of simulated intestinal fluid: 0.68 g of potassium dihydrogen phosphate was dissolved in 50 ml of water, and the pH value was adjusted to 6.8 with 0.1 mol/L sodium hydroxide solution. 1 g of trypsin was dissolved in an appropriate amount of water. After the two solutions were mixed, the mixture was diluted with water to 1000 ml.
About 12.5 mg of the sample was added to a 25 ml volumetric flask and dissolved in the simulated gastric fluid (or simulated intestinal fluid), and the mixture was diluted to the mark.
Instrument model: Agilent 1260 Infinity; mobile phase A: 10 mmol/L K2HPO4, and mobile phase B: acetonitrile; column: Phenomenex Gemini^@ 3 um C18 110Å 150 * 4.6 mm; wavelength: 224 nm; column temperature: 30°C; sample tray temperature: 37°C; injection time: 35 min; injection volume: 10 ul; injection mode: gradient injection; and gradient method. Table 7. Gradient mobile phase
Sampling and testing: Firstly, the blank solution (simulated gastric fluid or simulated intestinal fluid) was tested. Then, the prepared sample (newly prepared for use) was placed in the injection tray for immediate injection. Then, a needle of sample was injected at 4.5 h, 9.5 h, and 18 h, respectively.
Table 8. Stability in gastrointestinal fluid

With `CC(=O)NCCCC[C@@H]1NC(=O)[C@H](Cc2c[nH]c3c(C)cccc23)NC(=O)[C@H]([C@@H](C)O)NC(=O)[C@H](Cc2c[nH]cn2)NC(=O)[C@@H](NC(C)=O)C(C)(C)SSC(C)(C)[C@@H](C(=O)N[C@@H](Cc2ccc(OCCN)c3c2CCC3)C(=O)N[C@@H](Cc2ccc3ccccc3c2)C(=O)NC2(C(=O)N[C@@H](CCC(=O)O)C(=O)N[C@@H](CC(N)=O)C(=O)N[C@@H](Cc3cccnc3)C(=O)N(C)CC(N)=O)CCOCC2)NC1=O` [Compound 7] (Ac-[Pen]HT[Trp(7-Me)]K(Ac)[Pen][Phe(4-OC2H4NH2,2,3-(CH2)3)][2Nal][Thp]EN[3Pal][Sar]-NH2; disulfide 1-6) as the compound, how does the remaining at 6 h, 1000 ng/mL [1] read?
Its remaining at 6 h, 1000 ng/mL is 98.3%.

And the IC50 [2]?
Its IC50 is 0.0014 nM.

And the IC50 [3]?
The IC50 was 0.0539 nM.

And the Peak area% ([4]; 0 h)?
The Peak area% was 94.095%.

And the Peak area% ([4]; 4.5 h)?
Its Peak area% is 93.552%.

What about the Peak area% ([4]; 9.5 h) of the same compound?
The Peak area% was 93.575%.

And the Peak area% ([4]; 18 h)?
The Peak area% was 94.831%.
